Measured values: patent publication US8779156B2, “Analogues for the treatment or prevention of flavivirus infections” (Vertex Pharmaceuticals Incorporated, priority 2010, dated 2014)

The compounds below were run on HCV (1b) replicon, Huh-ET cells (assay: Cell-based luciferase reporter HCV (1b) RNA replication assay). Conditions: Hepatitis C virus, 96 h; HCV 1b replicon, luciferase, 4 days incubation; read-out: EC50_1b.
Source text: Cell-Based Luciferase Reporter HCV (Ib) RNA Replication Assay Cell Culture
Replicon cell lines Huh-5.2 are derived from the Huh-7 hepatocarcinoma cell line are maintained in culture as generally described in Krieger, N; Lohmann, V; Bartenschlager, R. Enhancement of hepatitis C virus RNA replication by cell culture-adaptive mutations. J. Virol. 2001, 75, 4614-4624. The Huh-5.2 cells contain the highly cell culture-adapted replicon I389luc-ubi-neo/NS3-375.1 construct that carries, in addition to the neomycin gene, an integrated copy to the firefly luciferase gene (Krieger, N; Lohmann, V; Bartenschlager, R. Enhancement of hepatitis C virus RNA replication by cell culture-adaptive mutations. J. Virol. 2001, 75, 4614-4624). This cell line allows measurement of HCV RNA replication and translation by measuring luciferase activity. It has been previously shown that the luciferase activity tightly follows the replicon RNA level in these cells (Krieger, N; Lohmann, V; Bartenschlager, R. Enhancement of hepatitis C virus RNA replication by cell culture-adaptive mutations. J. Virol. 2001, 75, 4614-4624). The Huh-ET cell line has the same features as those mentioned for Huh-5.2 cell line, except that ET cells are more robust and contain an adaptative mutation in the HCV NS4B gene instead of NS5A. Both cell lines are maintained in cultures at a sub-confluent level (<85%) as the level of replicon RNA is highest in actively proliferating cells. The culture media used for cell passaging consist of DMEM (Gibco BRL Laboratories, Mississauga, ON, Canada) supplemented with 10% foetal bovine serum with 1% penicilin/streptomycin, 1% glutamine, 1% sodium pyruvate, 1% non-essential amino acids, and 180 μg/ml of G418 final concentration. Cells are incubated at 37° C., in an atmosphere of 5% CO2 and passaged twice a week to maintain sub-confluence.
Approximately 3000 viable Huh-ET cells (100 μl) are plated per well in a white opaque 96-well microtiter plate. The cell culture media used for the assay is the same as described above except that it contains no G418 and no phenol red. After an incubation period of 3-4 hours at 37° C. in a 5% CO2 incubator, compounds (100 μl) are added at various concentrations. Cells are then further incubated for 4 days at 37° C. in a 5% CO2 incubator. Thereafter, the culture media is removed and cells are lysed by the addition of 95 μL of the luciferase buffer (luciferin substrate in buffered detergent). Cell lysates are incubated at room temperature and protected from direct light for at least 10 minutes. Plates are read for luciferase counts using a luminometer (Wallac MicroBeta Trilux, Perkin Elmer™, MA, USA).
Curves are fitted to data points using nonlinear regression analysis, and IC50s are interpolated from the resulting curve using GraphPad Prism software, version 2.0 (GraphPad Software Inc., San Diego, Calif., USA).

Structure (SMILES) | EC50 [nM]
COC(=O)N[C@H](C(=O)N1C[C@@H](C)C[C@H]1c1nc(-c2ccc(-c3ccc(-c4ccc5nc([C@@H]6C[C@H](C)CN6C(=O)[C@@H](NC(=O)OC)C(C)C)[nH]c5c4)cc3)cc2)c[nH]1)C(C)C [Compound 5, ((S)-1-{(2S,4S)-2-[5-(4′-{2-[(2S,4S)-1-((S)-2-Methoxycarbonylamino-3-methyl-butyryl)-4-methyl-pyrrolidin-2-yl]-1H-imidazol-4-yl}-biphenyl-4-yl)-1H-benzoimidazol-2-yl]-4-methyl-pyrrolidine-1-carbonyl}-2-methyl-propyl)-carbamic acid methyl ester] | ≤ 5
COC(=O)N[C@H](C(=O)N1C[C@@H](C)C[C@H]1c1nc(-c2cc3sc(-c4ccc5[nH]c([C@@H]6C[C@H](C)CN6C(=O)[C@H](C(C)C)N6CCOC6=O)nc5c4)cc3s2)c[nH]1)C(C)C [Compound 40] | ≤ 5
COC(=O)N[C@H](C(=O)N1C[C@@H](C)C[C@H]1c1ncc(-c2ccc(-c3cc4sc(-c5ccc6nc([C@@H]7C[C@H](C)CN7C(=O)[C@@H](NC(=O)OC)C(C)C)[nH]c6c5)cc4s3)cc2)[nH]1)C(C)C [Compound 25] | ≤ 5
COC(=O)N[C@H](C(=O)N1C[C@@H](C)C[C@H]1c1nc(C#Cc2ccc(-c3ccc4[nH]c([C@@H]5C[C@H](C)CN5C(=O)[C@@H](NC(=O)OC)C(C)C)nc4c3)cc2)c[nH]1)C(C)C [Compound 12, Methyl N-[(1S)-1-[(2S,4S)-2-[4-[2-[4-[2-[(2S,4S)-1-[(2S)-2-(methoxycarbonylamino)-3-methyl-butanoyl]-4-methyl-pyrrolidin-2-yl]-1H-benzimidazol-5-yl]phenyl]ethynyl]-1H-imidazol-2-yl]-4-methyl-pyrrolidine-1-carbonyl]-2-methyl-propyl]carbamate] | ≤ 5
COC(=O)N[C@H](C(=O)N1CC(C)(C)C[C@H]1c1nc(-c2ccc(-c3ccc(-c4ccc5[nH]c([C@@H]6CC(C)(C)CN6C(=O)[C@@H](NC(=O)OC)C(C)C)nc5c4)cc3)cc2)c[nH]1)C(C)C [Compound 23] | ≤ 5
COC(=O)N[C@H](C(=O)N1C[C@@H](C)C[C@H]1c1nc2cc(-c3ccc(-c4ccc(-c5cnc([C@@H]6C[C@H](C)CN6C(=O)[C@H](C(C)C)N(C)C(=O)OC)[nH]5)cc4)cc3)ccc2[nH]1)C(C)C [Compound 8, Methyl ((S)-1-((2S,4S)-2-(4-(4′-(2-((2S,4S)-1-((S)-2-((methoxycarbonyl)amino)-3-methylbutanoyl)-4-methylpyrrolidin-2-yl)-3H-benzo[d]imidazol-6-yl)-[1,1′-biphenyl]-4-yl)-1H-imidazol-2-yl)-4-methylpyrrolidin-1-yl)-3-methyl-1-oxobutan-2-yl)(methyl)carbamate] | ≤ 5
COC(=O)N[C@H](C(=O)N1C[C@@H](C)C[C@H]1c1nc2cc(-c3ccc(-c4ccc(-c5c[nH]c([C@@H]6C[C@H](C)CN6)n5)cc4)cc3)ccc2[nH]1)C(C)C [Compound 51] | ≤ 5
COC(=O)N[C@H](C(=O)N1C[C@@H](C)C[C@H]1c1nc(-c2ccc(-c3ccc(-c4ccc5[nH]c([C@@H]6C[C@H](C)CN6C(=O)[C@@H](NC(=O)OC)C(C)C)nc5c4)cc3F)cc2)c[nH]1)C(C)C [Compound 39] | ≤ 5
COC(=O)N[C@H](C(=O)N1C[C@@H](C)C[C@H]1c1nc(-c2ccc(-c3ccc(-c4ccc5[nH]c([C@@H]6C[C@H](C)CN6C(=O)[C@@H](NC(=O)OC)C(C)C)nc5c4)s3)cc2)c[nH]1)C(C)C [Compound 27] | ≤ 5
COC(=O)N[C@H](C(=O)N1C[C@@H](C)C[C@H]1c1nc(-c2ccc3cc(-c4ccc5[nH]c([C@@H]6C[C@H](C)CN6C(=O)[C@@H](NC(=O)OC)C(C)C)nc5c4)ccc3c2)c[nH]1)C(C)C [Compound 20] | ≤ 5
COC(=O)N[C@H](C(=O)N1C[C@@H](C)C[C@H]1c1nc(-c2ccc3cc(-c4ccc5[nH]c([C@@H]6C[C@H](C)CN6C(=O)[C@@H](NC(=O)OC)C(C)C)nc5c4)sc3c2)c[nH]1)C(C)C [Compound 41] | ≤ 5
COC(=O)NC(C(=O)N1C[C@@H](C)C[C@H]1c1nc2cc(C#Cc3cc4sc(-c5c[nH]c([C@@H]6C[C@H](C)CN6C(=O)[C@@H](NC(=O)OC)C(C)C)n5)cc4s3)ccc2[nH]1)C(C)C (stereo partly drawn) [Compound 45] | ≤ 5
COC(=O)N[C@H](C(=O)N1C[C@@H](C)C[C@H]1c1nc(-c2cc3cc(-c4ccc5[nH]c([C@@H]6C[C@H](C)CN6C(=O)[C@@H](NC(=O)OC)C(C)C)nc5c4)sc3s2)c[nH]1)C(C)C [Compound 43] | ≤ 5
COC(=O)N[C@H](C(=O)N[C@H](C(=O)N1C[C@@H](C)C[C@H]1c1nc(-c2ccc(-c3ccc(-c4ccc5[nH]c([C@@H]6C[C@H](C)CN6C(=O)[C@@H](NC(=O)OC)C(C)C)nc5c4)cc3)cc2)c[nH]1)C(C)C)C(C)C [Compound 55] | ≤ 5
COC(=O)N[C@H](C(=O)N1C[C@@H](C)C[C@H]1c1ncc(-c2csc(-c3ccc(-c4ccc5[nH]c([C@@H]6C[C@H](C)CN6C(=O)[C@@H](NC(=O)OC)C(C)C)nc5c4)cc3)c2)[nH]1)C(C)C [Compound 14] | ≤ 5
COC(=O)N[C@H](C(=O)N1C[C@@H](C)C[C@H]1c1nc(-c2cc3sc(-c4ccc5[nH]c([C@@H]6C[C@H](C)CN6C(=O)[C@@H](NC(=O)OC)C(C)C)nc5c4)cc3s2)c[nH]1)C(C)C [Compound 16, Methyl N-[(1S)-1-[(2S,4S)-2-[4-[5-[2-[(2S,4S)-1-[(2S)-2-(methoxycarbonylamino)-3-methyl-butanoyl]-4-methyl-pyrrolidin-2-yl]-1H-benzimidazol-5-yl]thieno[3,2-b]thiophen-2-yl]-1H-imidazol-2-yl]-4-methyl-pyrrolidine-1-carbonyl]-2-methyl-propyl]carbamate] | ≤ 5

Same assay, conditions: Hepatitis C virus; sub-genomic replicon 1b cell line

Structure (SMILES) | IC50 [pM]
COC(=O)N[C@H](C(=O)N1C[C@@H](C)C[C@H]1c1nc(-c2ccc(-c3ccc(-c4ccc5nc([C@@H]6C[C@H](C)CN6C(=O)[C@@H](NC(=O)OC)C(C)C)[nH]c5c4)cc3)cc2)c[nH]1)C(C)C [Compound 5, ((S)-1-{(2S,4S)-2-[5-(4′-{2-[(2S,4S)-1-((S)-2-Methoxycarbonylamino-3-methyl-butyryl)-4-methyl-pyrrolidin-2-yl]-1H-imidazol-4-yl}-biphenyl-4-yl)-1H-benzoimidazol-2-yl]-4-methyl-pyrrolidine-1-carbonyl}-2-methyl-propyl)-carbamic acid methyl ester] | 5

What follows are compounds tested on sub-genomic HCV replicon of genotype 1a (cell line W11.8) (assay: Activity determination using the ELISA and the sub-genomic replicon 1a cell line (NS5A protein level)). Conditions: Hepatitis C virus.
Format: cell-based
Source text: Activity Determination Using the ELISA and the Sub-Genomic Replicon 1a Cell Line
The cell line W11.8 containing the sub-genomic HCV replicon of genotype 1a is used to determine the potency of the drugs. The RNA replication in presence of different drug concentrations is indirectly measured in this cell line by the level of NS5A protein content upon drug treatment for four days. It is shown that the level of the NS5A protein correlates well with the level of HCV RNA in the replicon cell line. Cells are split twice a week in order to keep the confluence state below 85% of the culture flask surface area. The culture media used for cell passaging consists of DMEM-10% foetal bovine serum with 100 UI/mL penicillin, 100 μg/mL streptomycin, 2 mM glutamine, 1 mM sodium pyruvate, non-essential amino acids (1×) and 600 μg/mL of G418 final concentrations. Monolayer of the W11.8 cells is trypsinized and cells are counted. Cells are diluted at 50,000 cells/mL with complete DMEM without G418, then approximately 5,000 viable cells (100 μL) are plated per well in a white opaque 96-well microtiter plate. After an incubation period of 2-4 hours at 37° C. in a 5% CO2 incubator, compounds are added at various concentrations. Drugs are resuspended in DMSO at a stock concentration of 10 mM. Then, drugs are serially diluted at twice the final concentration in the same medium. One volume (100 μL) of each drug dilution is then added to each well that contains cells. A control compound is used as an internal standard for each plate assay. Sixteen wells are used as control (0% inhibition) without drug. […] Values from 100% inhibited wells were averaged and used as the background value. Cells are further incubated for four days at 37° C. in a 5% CO2 incubator. Following the incubation time of four days, the media is removed and wells are washed once with 150 μL of PBS at room temperature for five minutes. Cells are then fixed for five minutes using 150 μL per well of cold (−20° C.) fixative solution (50% methanol/50% acetone mix). Cells are then washed twice with 150 μL of PBS (phosphate buffered saline) per well, following the addition of 150 μL of blocking solution, cells are incubated for one hour at 37° C. to block non-specific sites. The blocking solution is removed and cells are washed twice with 150 μL of PBS per well and once with 150 μL of PBSTS solution (PBS/0.1% Triton X-100/0.02% SDS) per well. […] Then, substrate solution (100 μl, SuperSignal ELISA Pico Chemiluminescent Substrate, Fisher Cat. No. 37069) is added in each well and plates are incubated 60 minutes at room temperature prior to reading the luminescence (relative light units) on the Analyst HT plate reader. The percentage of inhibition at each drug concentration tested (in duplicate) is calculated.

Structure (SMILES) | IC50 [pM]
COC(=O)N[C@H](C(=O)N1C[C@@H](C)C[C@H]1c1nc(-c2ccc(-c3ccc(-c4ccc5nc([C@@H]6C[C@H](C)CN6C(=O)[C@@H](NC(=O)OC)C(C)C)[nH]c5c4)cc3)cc2)c[nH]1)C(C)C [Compound 5, ((S)-1-{(2S,4S)-2-[5-(4′-{2-[(2S,4S)-1-((S)-2-Methoxycarbonylamino-3-methyl-butyryl)-4-methyl-pyrrolidin-2-yl]-1H-imidazol-4-yl}-biphenyl-4-yl)-1H-benzoimidazol-2-yl]-4-methyl-pyrrolidine-1-carbonyl}-2-methyl-propyl)-carbamic acid methyl ester] | 4.1
